Laboratory results as given in patent US9642860B2, “Combinations of corroles and statins” (Technion Research & Development Foundation Limited, priority 2011, dated 2017).

How the values were obtained:
[1] = tested on: J774.A1 macrophages; test: Cholesterol biosynthesis model: acetate incorporation into cholesterol in macrophages; format: cell-based, Murine; settings: 24 h incubation
From the text: Accumulation of cholesterol within arterial macrophages is a step in the development of atherosclerosis (M. Aviram 2004). Statins can lower the levels of cholesterol biosynthesis in arterial macrophages. The cholesterol biosynthesis model which was employed determined the effect of various agents (pravastatin alone, fluvastatin alone, 1-Fe alone in various concentrations, 1-Fe in combination with pravastatin and 1-Fe in combination with fluvastatin) on reduction of cholesterol biosynthesis in macrophages.
Murine J774.A1 macrophages were cultured in DMEM (Dulbecco's Modified Eagle Medium) containing 5% FCS (fetal calf serum) in a humidified incubator. […] The effect of different concentrations of 1-Fe on cholesterol biosynthesis from acetate and on 1-Fe cellular uptake were determined by incubating J774.A1 macrophages for 24 h (hours) with 0, 5, 20 or 50 μM (micromolar) of 1-Fe. Intracellular corrole concentrations were then determined by a chemiluminescent method, and cholesterol biosynthesis was assayed by measuring acetate incorporation into cholesterol. […] Unesterified cholesterol spots were visualized by iodine vapor (using appropriate standard), scraped into scintillation vials and counted in a β-counter. 0.1 M (molar) NaOH (sodium hydroxide) was added to the remains of the cells, and cellular proteins were measured the following day by the Lowry method. […]

[2] = target: T1, HMG-CoA reductase (HMGCR) (Homo sapiens, UniProt P04035); test: HMG-CoA reductase-catalyzed reaction inhibition (CoA byproduct by HPLC); format: biochemical; settings: read-out: Inhibition Percent
T1 sequence (P04035 426-888 limits assumed): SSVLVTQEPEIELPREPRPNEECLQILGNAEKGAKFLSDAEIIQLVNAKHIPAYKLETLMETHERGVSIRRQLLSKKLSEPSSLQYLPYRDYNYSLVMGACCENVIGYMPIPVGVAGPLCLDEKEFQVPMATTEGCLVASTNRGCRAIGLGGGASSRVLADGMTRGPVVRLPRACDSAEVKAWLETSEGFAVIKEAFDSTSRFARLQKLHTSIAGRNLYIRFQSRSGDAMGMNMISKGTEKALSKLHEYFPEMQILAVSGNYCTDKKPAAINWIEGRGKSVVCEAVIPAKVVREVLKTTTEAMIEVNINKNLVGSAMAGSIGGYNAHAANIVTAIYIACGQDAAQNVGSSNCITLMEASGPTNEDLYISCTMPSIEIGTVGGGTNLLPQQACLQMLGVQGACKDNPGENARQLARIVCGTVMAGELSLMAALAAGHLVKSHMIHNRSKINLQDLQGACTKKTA
Method: The effects of 1-Fe and statins fluvastatin and pravastatin alone and in combination on mevalonic acid production were tested using the following in vitro method.
Substrates of the HMGCR catalyzed reaction, NADPH (400 μM] and HMGCR (200 μM) were mixed in activity buffer comprising 100 mM sodium phosphate buffer, 1 mM ethylenediaminetetraacetic acid (EDTA), 10 mM dithiothreitol, 2% dimethyl sulfoxide, and 1 mM magnesium sulphate, the mixture having a pH of 6.8. 1-Fe, PS, or FS (alone or as a corrole statin combination) were added to the substrate mixture at various concentrations, followed by addition of HMGCR (0.48 μM). Reactions were then incubated at 37° C. for 15 minutes, followed by injection of 80 μl (microliter) to a reverse phase GraceSmart RP18 high performance liquid chromatography column (HPLC). […] As mevalonate concentration is difficult to identify in reaction mixture because it has no absorbance in the UV range, the yield of each reaction was calculated from the amount of CoA byproduct formed in the reaction after subtracting the baseline amount of CoA present as an impurity in the commercial HMG-CoA determined by injecting the substrate mixture alone. The inhibition percentage was calculated from the yield of each reaction relative to the yield of the enzymatic reaction without the addition of inhibitor.

[3] = high dose 80 mg, over five years, compared to moderate dose statins; cited from earlier work

CC(C)n1c(/C=C/C(O)CC(O)CC(=O)O)c(-c2ccc(F)cc2)c2ccccc21 (centres unmarked) [FS, fluvastatin]
reduction of macrophage biosynthesis of cholesterol ([1]; 20 μM FS alone): 25% | inhibition at 1 µM ([2]; FS 1 micromolar alone): 9%

CC(C)c1c(C(=O)Nc2ccccc2)c(-c2ccccc2)c(-c2ccc(F)cc2)n1CC[C@@H](O)C[C@@H](O)CC(=O)O [atorvastatin]
increase in the chance of developing Type 2 diabetes [3]: 12%

CC[C@H](C)C(=O)O[C@H]1C[C@H](O)C=C2C=C[C@H](C)[C@H](CC[C@@H](O)C[C@@H](O)CC(=O)O)[C@H]21 [PS, pravastatin]
reduction of macrophage biosynthesis of cholesterol ([1]; 200 μM PS alone): 10% | inhibition at 5 µM ([2]; PS 5 micromolar alone): 17%
